How the values were obtained:
Assay in all cases: relative viability (nuclei count vs DMSO), 5 days (fraction); higher = more cells survive
Apatinib + Navitoclax = compound: N#CC1(c2ccc(NC(=O)c3cccnc3NCc3ccncc3)cc2)CCCC1 [Apatinib] + CC1(C)CCC(c2ccc(Cl)cc2)=C(CN2CCN(c3ccc(C(=O)NS(=O)(=O)c4ccc(N[C@H](CCN5CCOCC5)CSc5ccccc5)c(S(=O)(=O)C(F)(F)F)c4)cc3)CC2)C1 [Navitoclax] (partner 0.5 µM)
Summary of the method: (§1)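 Values are medians from duplicate plates. Each reflects relative viability, defined as the nuclei count of treated wells over that of vehicle wells. Lung cancer cell lines in 1536-well plates were pin-tool dosed one day after seeding with one drug alone or with a fixed anchor-drug dose plus five library-drug doses (not always all listed) in √10 steps, then fixed, stained and imaged at 4× after 5 days.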

Metformin + Trametinib = compound: CN(C)C(=N)NC(=N)N [Metformin] + CC(=O)Nc1cccc(-n2c(=O)n(C3CC3)c(=O)c3c(Nc4ccc(I)cc4F)n(C)c(=O)c(C)c32)c1 [Trametinib] (partner 0.02 µM)
Summary of the method: as §1

Metformin = compound: CN(C)C(=N)NC(=N)N [Metformin]
Summary of the method: (§2)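 Lung cancer cell lines in 1536-well plates were kept overnight at 37 °C, then pinned with five library-drug doses (not always all listed) spaced by √10 on vehicle-anchored plates. After 5 days without medium change, cells were fixed, permeabilised and Hoechst-stained in one step, imaged at 4×, and nuclei were counted with MetaXpress. Viability is treated-well nuclei divided by vehicle-well nuclei, taken as the median over plates. Plates passed only with control CV below 25% and at least one doubling.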

Apatinib = compound: N#CC1(c2ccc(NC(=O)c3cccnc3NCc3ccncc3)cc2)CCCC1 [Apatinib]
Summary of the method: as §2

Cell Line | relative viability (Apatinib + Navitoclax; first compound 0.08 µM) | relative viability (Apatinib + Navitoclax; first compound 0.253 µM) | relative viability (Apatinib + Navitoclax; first compound 0.8 µM) | relative viability (Apatinib + Navitoclax; first compound 2.53 µM) | relative viability (Apatinib + Navitoclax; first compound 8 µM) | relative viability (Metformin + Trametinib; first compound 10 µM) | relative viability (Metformin + Trametinib; first compound 31.62 µM) | relative viability (Metformin + Trametinib; first compound 100 µM) | relative viability (Metformin + Trametinib; first compound 316.23 µM) | relative viability (Metformin + Trametinib; first compound 1000 µM) | relative viability (Metformin; 10 µM) | relative viability (Metformin; 31.62 µM) | relative viability (Metformin; 100 µM) | relative viability (Metformin; 316.23 µM) | relative viability (Metformin; 1000 µM) | relative viability (Apatinib; 0.08 µM) | relative viability (Apatinib; 0.253 µM) | relative viability (Apatinib; 0.8 µM) | relative viability (Apatinib; 2.53 µM) | relative viability (Apatinib; 8 µM)
NCI-H2009 | 1.22 | 1.23 | 1.12 | 0.913 | 0.826 | 0.366 | 0.362 | 0.387 | 0.36 | 0.384 | 0.889 | 1.1 | 1.04 | 1.02 | 1.03 | 1.06 | 0.979 | 0.968 | 0.762 | 0.618
SW 1573 | 1.01 | 1 | 1.19 | 0.927 | 0.885 | 0.67 | 0.559 | 0.522 | 0.211 | 0.367 | 1.13 | 1.1 | 1.01 | 0.843 | 0.864 | 1.08 | 1.12 | 0.941 | 0.839 | 0.872
HARA | 1.15 | 1.18 | 1.1 | 1.13 | 1.07 | 1.45 | 1.35 | 1.27 | 1.22 | 1.13 | 1.12 | 1.26 | 1.13 | 1.06 | 1.13 | 1.33 | 0.93 | 1 | 0.742 | 1.04
PC-3 [JPC-3] | 0.785 | 0.764 | 0.746 | 0.816 | 0.737 | 0.683 | 0.717 |  | 0.706 | 0.68 | 0.898 | 0.986 | 1.01 | 0.987 | 1.02 | 1.06 | 0.983 | 0.915 | 0.955 | 0.985
NCI-H1666 | 1.02 | 0.963 | 1.07 | 0.815 | 1.04 | 0.687 | 0.676 | 0.759 | 0.771 | 0.941 | 0.938 | 1.11 | 0.971 | 1.07 | 1.09 | 1.01 | 0.958 | 0.969 | 0.997 | 0.986
NCI-H520 | 1.21 | 1.14 | 0.982 | 1.02 | 0.857 | 0.798 | 0.622 | 0.739 | 0.505 | 0.762 | 1.08 | 0.928 | 1.18 | 0.889 | 1.03 | 1.11 | 0.945 | 1.01 | 0.813 | 0.81
NCI-H2023 | 0.988 | 1.01 | 0.954 | 0.925 | 0.895 | 0.5 | 0.563 | 0.516 | 0.415 | 0.467 | 0.782 | 1.13 | 0.921 | 0.853 | 0.769 | 1.01 | 0.94 | 0.974 | 0.881 | 0.883
LXF-289 | 0.948 | 0.925 | 0.95 | 0.82 | 0.882 | 0.645 | 0.658 | 0.641 | 0.602 | 0.602 | 0.872 | 0.927 | 0.95 | 0.946 | 0.99 | 0.989 | 0.976 | 0.981 | 0.943 | 0.951
EPLC-272H | 1.06 | 1.05 | 0.961 | 1.04 | 0.731 | 0.341 | 0.316 | 0.291 | 0.311 | 0.337 | 0.9 | 1.16 | 0.923 | 0.935 | 1.09 | 1.01 | 1.02 | 0.914 | 0.774 | 0.691
NCI-H2087 | 1.06 | 1.05 | 0.847 | 0.963 | 0.782 | 0.232 | 0.222 | 0.18 | 0.152 | 0.254 | 0.79 | 0.965 | 0.944 | 0.813 | 1.01 | 1.05 | 1.03 | 1.22 | 0.788 | 0.814
NCI-H647 | 1.3 | 1.29 | 1.04 | 0.975 | 0.779 | 0.479 | 0.598 | 0.498 | 0.482 | 0.556 | 0.978 | 1.05 | 1.05 | 0.813 | 0.939 | 1.05 | 1.07 | 0.993 | 0.837 | 0.852
NCI-H1793 | 0.343 | 0.712 | 0.441 | 0.29 | 0.283 | 0.432 | 0.454 | 0.413 | 0.45 | 0.507 | 0.943 | 1.01 | 0.993 | 0.977 | 1.25 | 1.02 | 1.01 | 0.857 | 0.772 | 0.749
LCLC-97TM1 | 0.485 | 0.401 | 0.369 | 0.397 | 0.18 |  | 0.207 | 0.247 | 0.174 | 0.229 | 0.725 | 0.978 | 0.988 | 0.843 | 1.25 | 0.792 | 0.882 | 1.02 | 0.785 | 0.662
NCI-H1944 | 1.04 | 1.06 | 0.976 | 0.974 | 0.965 | 0.37 | 0.412 | 0.38 | 0.365 | 0.415 | 0.845 | 1.1 | 0.954 | 0.882 | 1.04 | 0.948 | 0.921 | 0.886 | 0.791 | 0.921
201T | 1.2 | 1.24 | 1.19 | 1.27 | 1.18 |  | 0.679 | 0.735 | 0.684 | 0.681 |  | 1.08 | 1.06 | 0.934 | 1.01 | 0.983 | 0.961 | 0.982 | 0.871 | 0.894
CAL-12T | 1.26 | 1.23 | 1.1 | 1.17 | 1.03 | 0.357 | 0.443 | 0.404 | 0.432 | 0.452 | 1.02 | 1.19 | 0.938 | 1.02 | 0.968 | 1.08 | 0.99 | 1 | 0.91 | 0.828
